Laboratory results published in US9827177B2, “Antiperspirant products with protein and antiperspirant salts” (Colgate-Palmolive Company, priority 2012, dated 2017).

Tests used:
[1] = test system: bacterial lawn on TSA plates; assay: Zone of inhibition test; format: cell-based; settings: 20 μl on filter paper discs, 20 hours at 37° C.; compared with zinc oxide and lysine hydrochloride
Protocol: A zone of inhibition test is conducted on several materials: zinc oxide, lysine hydrochloride, and ZLC. The method involves making a lawn of freshly prepared bacterial culture on TSA (trypticase soy agar) plates. Sterile filter paper discs are seeded with 20 μl of test sample (supernatant or mixture). Sample-coated filter paper discs are air dried and applied onto the bacterial lawn on TSA plates. Plates are incubated for 20 hours at 37° C.

[2] = target: T1, Bovine Serum Albumin (BSA) (Bos taurus, UniProt P02769); assay: Flocculation of ZLC in the presence of protein (turbidity, pH); format: physicochemical; settings: 5 hours at 37° C.
T1 construct: is a serum albumin protein derived from the blood of cattle; from tissue; host or cells: blood of cattle
T1 sequence (P02769 25-607): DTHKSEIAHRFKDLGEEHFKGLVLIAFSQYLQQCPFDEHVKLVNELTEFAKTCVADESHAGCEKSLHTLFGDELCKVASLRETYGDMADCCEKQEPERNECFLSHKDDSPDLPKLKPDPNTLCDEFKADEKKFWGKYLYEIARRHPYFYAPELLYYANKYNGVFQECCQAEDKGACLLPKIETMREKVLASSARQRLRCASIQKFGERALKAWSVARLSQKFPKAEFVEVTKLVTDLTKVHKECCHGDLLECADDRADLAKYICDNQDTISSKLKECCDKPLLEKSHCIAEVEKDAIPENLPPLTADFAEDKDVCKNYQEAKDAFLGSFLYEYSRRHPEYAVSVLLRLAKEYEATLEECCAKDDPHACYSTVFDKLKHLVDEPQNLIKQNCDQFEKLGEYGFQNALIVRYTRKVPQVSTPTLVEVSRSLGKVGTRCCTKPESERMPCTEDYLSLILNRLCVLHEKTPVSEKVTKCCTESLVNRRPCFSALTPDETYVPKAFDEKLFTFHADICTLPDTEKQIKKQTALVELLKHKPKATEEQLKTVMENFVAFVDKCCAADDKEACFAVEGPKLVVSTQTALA
Protocol: Turbidity and pH of solutions are measured 5 hours after the mixtures were placed in a 37° C. oven, and the results are shown in Table 3.

[3] = Precipitation of ZLC-BSA mixture solutions at adjusted pH; format: physicochemical; settings: pure solution, pH 3-11
Description: The pH of the solutions is adjusted to 3, 4, 5, 6, 7, 8, 9, 10 and 11 to observe the formation of precipitation. Precipitate is formed in all solutions at pH ranging from 3 to 5. […] All solutions appear clear at pH 8. A small amount of precipitation is also found at pH 9 and 10. At pH 11, precipitate is formed in all solutions. […] The formation of precipitation in acid pH requires both ZLC and BSA to be present in solution.

[4] = Hydrolysis reaction: turbidity and pH of diluted ZLC solutions before and after aging; format: physicochemical; settings: for pH after aging / turbidity after aging (NTU): aged 37° C. over 5 hours; for initial turbidity (NTU): before aging
Protocol: Hydrolysis reaction: A 185 mg/ml ZLC solution is prepared and diluted several-fold and aged in a 37° C. oven over 5 hours for turbidity studies. […] Turbidity of the solutions is measured using a nephelometer, results being given in nephelometric turbidity units (NTU).
The precipitates formed in the 8×, 16× and 32× diluted solutions are collected by centrifugation and identified as crystalline ZnO by PXRD. From the supernatant, a single crystal is grown and shown by X-ray diffraction to be Lysine Monohydrochloride Dihydrate (Lysine.HCl.2H2O).

[5] = sample 1: DI water, 0% BSA, ZLC about 0.98% w/w or 15 mg/ml
[6] = sample 2: 1% BSA, pH 7.2, ZLC about 0.96% w/w or 15 mg/ml
[7] = sample 3: 1% BSA, pH adjusted to 5.1, ZLC about 0.96% w/w or 15 mg/ml

NCCCCC(N)C(=O)O.NCCCCC(N)C(=O)O.O.O.[Cl-].[Cl-].[Zn+2] (stereo not drawn) [ZLC, zinc-lysine-HCl complex]
antibacterial activity (zone of inhibition) [1]: better antibacterial activity than zinc oxide alone or lysine hydrochloride alone | observation [2, 5]: becomes slightly cloudy | pH [2, 5]: 8 | Turbidity (NTU) [2, 6]: >1000 NTU | observation [2, 6]: a lot white precipitate | pH [2, 6]: 8.2 | Turbidity (NTU) [2, 7]: >1000 NTU | observation [2, 7]: a lot white precipitate | pH [2, 7]: 8 | formation of precipitation [3]: No precipitation | pH after aging ([4]; 5.78 mg/ml ZLC solution): 8 | turbidity after aging (NTU) ([4]; 5.78 mg/ml ZLC solution): >1000 NTU | pH after aging ([4]; 11.56 mg/ml ZLC solution): 7.8 | turbidity after aging (NTU) ([4]; 11.56 mg/ml ZLC solution): >1000 NTU | pH after aging ([4]; 23.125 mg/ml ZLC solution): 7.7 | initial turbidity (NTU) ([4]; 23.125 mg/ml ZLC solution): 0.7 NTU | pH after aging ([4]; 46.25 mg/ml ZLC solution): 7.4 | turbidity after aging (NTU) ([4]; 46.25 mg/ml ZLC solution): 2.8 NTU | initial turbidity (NTU) ([4]; 46.25 mg/ml ZLC solution): 1.5 NTU | pH after aging ([4]; 92.5 mg/ml ZLC solution): 7 | turbidity after aging (NTU) ([4]; 92.5 mg/ml ZLC solution): 2.6 NTU | initial turbidity (NTU) ([4]; 92.5 mg/ml ZLC solution): 2.8 NTU | observation on dilution of the solution ([4]; 185 mg/ml ZLC solution diluted several-fold): A white precipitate forms as the solution is diluted | pH after aging ([4]; 185 mg/ml ZLC solution): 6.8 | turbidity after aging (NTU) ([4]; 185 mg/ml ZLC solution): 4.1 NTU | initial turbidity (NTU) ([4]; 185 mg/ml ZLC solution): 4.7 NTU | stability of the complex upon dilution ([4]; 8×, 16× and 32× diluted solutions, precipitate identified as ZnO by PXRD): disassociates upon dilution, with consequent precipitation of zinc oxide
